{"source": "the pKa sets of Baltruschat and Czodrowski (2020)"}
{"settings": "acidic group"}
{"smiles": "O=C(O[C@H]1O[C@@H](C(=O)O)[C@H](O)[C@@H](O)[C@@H]1O)c1ccccc1", "pKa": 2.85}
{"smiles": "C[N+](C)(C)NC(=O)c1ccc([N+](=O)[O-])cc1", "pKa": 3.11}
{"smiles": "CCCOc1ccccc1C(=O)O", "pKa": 4.24}
{"smiles": "[NH3+][C@@H](Cc1ccccc1)C(=O)O", "pKa": 2.21}
{"smiles": "CC1(C)CC(O)[N+](C)(C)C1", "note": "(configuration not stated)", "pKa": 8.7}
{"smiles": "O=C([O-])[C@@H](NCC[NH2+][C@@H](C(=O)[O-])c1ccccc1O)c1ccccc1O", "pKa": 8.76}
{"smiles": "CCOC(=S)NC(=O)c1ccccc1", "pKa": 7.46}
{"smiles": "COO", "pKa": 11.5}
{"smiles": "CC(C)S(=O)O", "pKa": 2.3}
{"smiles": "Cc1nc(NS(=O)(=O)c2ccc(N)cc2)sc1C", "pKa": 6.97}
{"smiles": "O=S(=O)([O-])c1c(O)ccc2[nH]ncc12", "pKa": 10.6}
{"smiles": "OCC(S)CS", "note": "(configuration not stated)", "pKa": 8.62}
{"smiles": "CC(=O)c1cccc(C(=O)O)c1", "pKa": 3.84}
{"smiles": "Cc1ccc(S(=O)(=O)NCC[NH+](CC(=O)[O-])CC(=O)[O-])cc1", "pKa": 7.86}
{"smiles": "N#Cc1c(-c2nc3ccccc3o2)c(=O)oc2cc(O)ccc12", "pKa": 6.07}
{"smiles": "Cc1ccccc1C(=S)Nc1ccccc1", "pKa": 10.9}
{"smiles": "Cc1ccc(O)c(Cc2cc([N+](=O)[O-])ccc2O)c1", "pKa": 6.34}
{"smiles": "O=C(O)c1cccc(Br)c1", "pKa": 3.79}
{"smiles": "[O-]c1ccc2ccccc2[n+]1O", "pKa": 6.88}
{"smiles": "CC(C)=C(C#N)C(=O)O", "pKa": 3.04}
{"smiles": "CC[Se](=O)O", "pKa": 5.28}
{"smiles": "O=C(O)C[C@]1(O)C[C@H]2C=C[C@@H]1C2", "pKa": 4.36}
{"smiles": "O=C([O-])C[NH+](CCNS(=O)(=O)c1ccccc1)CC(=O)[O-]", "pKa": 7.82}
{"smiles": "CCC/C=C/C(=O)O", "pKa": 4.71}
{"smiles": "Cc1ccc(C(=S)Nc2ccc(Cl)c(Cl)c2)cc1", "pKa": 10.2}
{"smiles": "NC(=O)Cc1ccc(C(=O)O)cc1", "pKa": 4.06}
{"smiles": "CC[NH+](CC)Cc1cc([N+](=O)[O-])c2ccccc2c1O", "pKa": 2.82}
{"smiles": "O=[N+]([O-])c1ccc2c(O)cccc2c1", "pKa": 8.49}
{"smiles": "Cc1cc(C)c(C)c(O)c1", "pKa": 10.6}
{"smiles": "Cc1ccc([N+](=O)[O-])cc1C(=O)O", "pKa": 3.17}
{"smiles": "CC(C)CN(CC(C)C)C(=S)S", "pKa": 3.4}
{"smiles": "CN(C)c1cccc2c(S(=O)(=O)NCC[NH+](C)C)cccc12", "pKa": 8.33}
{"smiles": "Sc1cc[nH+]c2ccccc12", "pKa": 0.77}
{"smiles": "Oc1ccc(-c2ccc(O)cc2)cc1", "pKa": 9.4}
{"smiles": "Nc1ccc(S(=O)(=O)NCc2ccco2)cc1", "pKa": 10.9}
{"smiles": "CC(=N\\[O-])/C(C)=N/O", "pKa": 11.9}
{"smiles": "CC(C)C1=CC2=CC[C@H]3[C@@](C)(CCC[C@]3(C)C(=O)O)[C@@H]2CC1", "pKa": 6.4}
{"smiles": "C/C(=C\\c1cc(C(C)(C)C)c(O)c(C(C)(C)C)c1)C(=O)[O-]", "pKa": 11.5}
{"smiles": "CCC1(CC)OC(=O)NC1=O", "pKa": 5.7}
{"smiles": "O=C(O)Cc1nnn[nH]1", "pKa": 3.1}
{"smiles": "Cc1cc(C(=O)O)ccc1Cl", "pKa": 4.07}
{"smiles": "Cc1c(Cl)ccc2c1nnn2O", "pKa": 4.09}
{"smiles": "Oc1cc(O)c2ccccc2[nH+]1", "pKa": 0.76}
{"smiles": "Oc1ccc(O)cc1", "pKa": 9.93}
{"smiles": "O=C([O-])[C@@H]1CC[C@@H](C(=O)O)[Se][Se]1", "pKa": 3.67}
{"smiles": "O=C(O)C1CCC[NH2+]1", "note": "(configuration not stated)", "pKa": 1.99}
{"smiles": "OB(O)c1ccccc1", "pKa": 8.74}
{"smiles": "CCc1n[nH]c(CC)n1", "pKa": 10.2}
{"smiles": "Nc1ccc[nH+]c1C(=O)O", "pKa": 1.33}
{"smiles": "CCCCC([NH3+])C(=O)O", "note": "(configuration not stated)", "pKa": 2.29}
{"smiles": "O=[N+]([O-])c1ccc([O-])c(O)c1", "pKa": 10.9}
{"smiles": "C[n+]1ccc2cccc(O)c2c1", "pKa": 5.81}
{"settings": "basic group"}
{"smiles": "CNCCc1ccc(O)cc1", "pKa": 9.36}
{"smiles": "CC(=O)N=C(N(C)C)N(C)C", "pKa": 7.5}
{"smiles": "Cc1c([N+](=O)[O-])ccc2c(NCCC[NH+](C)C)ccnc12", "pKa": 6.71}
{"smiles": "O=C([O-])[C@@H]1Cc2[nH]cnc2C[NH2+]1", "pKa": 4.73}
{"smiles": "O=C([O-])[C@@H](NCC[NH2+][C@@H](C(=O)[O-])c1ccccc1O)c1ccccc1O", "pKa": 6.36}
{"smiles": "C[NH2+]CCCN", "pKa": 8.66}
{"smiles": "CCN1CC(O[Si](C)(C)C)C1", "pKa": 8.68}
{"smiles": "C(CN1CCOCC1)CN1CCOCC1", "pKa": 7.25}
{"smiles": "Cc1cc(-c2ccccc2)nn2cc(C[NH+]3CCOCC3)nc12", "pKa": 1.5}
{"smiles": "CCN(C)N(C)C", "pKa": 6.38}
{"smiles": "OCCCCCc1ccncc1", "pKa": 6.04}
{"smiles": "OC[C@@H]1O[C@H](n2cnc3ccccc32)[C@@H](O)[C@H](O)[C@H]1O", "pKa": 4.01}
{"smiles": "C[C@@H]1CNC[C@H](C)N1", "pKa": 9.86}
{"smiles": "CC(N)CCc1ccccc1", "note": "(configuration not stated)", "pKa": 9.78}
{"smiles": "CN1C2CCC(C2)N1C", "pKa": 6.89}
{"smiles": "CC[NH+](CC)CCCC(C)Nc1ccnc2cc(Br)ccc12", "note": "(configuration not stated)", "pKa": 8.1}
{"smiles": "CC(C)n1cnc2ccccc21", "pKa": 5.74}
{"smiles": "CSc1ccc(N)cc1Cl", "pKa": 3.38}
{"smiles": "Cc1nn(C)c(N(C)C(=O)CN)c1C(=O)c1ccccc1F", "pKa": 7.52}
{"smiles": "Cc1nc2cc(N)ccc2[nH]1", "pKa": 6.95}
{"smiles": "c1ccc2[nH+]c(-c3ccncc3)[nH]c2c1", "pKa": 4.47}
{"smiles": "CCOc1ccc2nccc([C@@H](O)[C@@H]3C[C@H]4CC[NH+]3C[C@@H]4CC)c2c1", "pKa": 4.05}
{"smiles": "CC[NH+](CC)CCC(C)Nc1c2ccc(Cl)cc2nc2ccc(OC)cc12", "note": "(configuration not stated)", "pKa": 7.2}
{"smiles": "CCOc1nccc([O-])n1", "pKa": 8.2}
{"smiles": "Cc1cccc(C=O)n1", "pKa": 4.55}
{"smiles": "C=Cc1ccncc1", "pKa": 5.62}
{"smiles": "CCN(CC)CCCC(C)Nc1ccnc2ccc(OC)cc12", "note": "(configuration not stated)", "pKa": 10.2}
{"smiles": "NCc1ccc(C(=O)[O-])cc1", "pKa": 9.64}
{"smiles": "CCN(CC)CCC(OC(=O)c1ccccc1)c1ccccc1", "note": "(configuration not stated)", "pKa": 7.53}
{"smiles": "COC(=O)[C@@H]1CSCN1", "pKa": 3.92}
{"smiles": "CN(C)C(C)(C)C", "pKa": 10.5}
{"smiles": "Nc1cccc2ccncc12", "pKa": 6.06}
{"smiles": "CN(C)CCc1c[nH]c2ccc([O-])cc12", "pKa": 11.2}
{"smiles": "Cc1cc(-c2ccccc2)n[n+](C)c1NCCN1CCOCC1", "pKa": 5.12}
{"smiles": "Nc1nc(N)c2cn[nH]c2n1", "pKa": 5.58}
{"smiles": "CN(C)c1ccc(Cl)cc1", "pKa": 4.39}
{"smiles": "CCN(CC)CCCC(C)Nc1cc(C)nc2cc(Cl)ccc12", "note": "(configuration not stated)", "pKa": 10.2}
{"smiles": "CCCCCCCNCc1ccc(C)cc1", "pKa": 10}
{"smiles": "NCC(F)F", "pKa": 7.09}
{"smiles": "Cc1cc(-c2cc(C)[nH+][nH]2)[nH]n1", "pKa": 0.4}
{"smiles": "CC(C)N/C=[NH+]/c1ccc(-c2c[nH]cn2)cc1", "pKa": 5.58}
{"smiles": "CN(C)c1cccc2c(S(=O)(=O)NCC[NH+](C)C)cccc12", "pKa": 3.57}
{"smiles": "CN1CCN(C(=O)c2ccccc2)CC1", "pKa": 6.78}
{"smiles": "C=C1[C@@H]2CC3C4N5C[C@]6(C)C[C@@H](OC(C)=O)[C@H](OC(C)=O)[C@]47C6[C@@H]5C[C@]3([C@H]1OC(C)=O)[C@@]7(O)C2", "pKa": 8.35}
{"smiles": "Nc1ccc(S(=O)(=O)NCc2ccco2)cc1", "pKa": 2.25}
{"smiles": "CNc1cnccc1N", "pKa": 9.14}
{"smiles": "c1ccc2c(c1)CCCN2", "pKa": 4.96}
{"smiles": "NC1=N[C@@H](CC(=O)[O-])C(=O)N1CCCC(N)C(=O)[O-]", "note": "(some centres not stated)", "pKa": 9.55}
{"smiles": "c1ccc(-c2cccc(-c3ccccn3)n2)nc1", "pKa": 4.66}
{"smiles": "CN1C2=CCCC1CCC2", "note": "(configuration not stated)", "pKa": 8.8}
{"smiles": "Oc1onc2c1CCNCC2", "pKa": 9.6}
{"smiles": "O=C([O-])c1cc2cc(Cn3ccnc3)ccc2o1", "pKa": 7.17}
{"smiles": "CN[C@H]1C[C@@H]1[NH2+]C", "pKa": 5.65}
{"smiles": "O=C([O-])c1ccnc2ccccc12", "pKa": 4.76}
{"smiles": "CN(C)CCC(=O)[O-]", "pKa": 9.85}
{"smiles": "CCOCCn1c(CN2CC[NH+](CCCCn3cc(C(=O)O)cn3)CC2)nc2ccccc21", "pKa": 4.9}
{"smiles": "CC(C)(C)NC1CCCCC1", "pKa": 11.3}
{"smiles": "Nc1ncnc(N)c1N", "pKa": 5.78}
{"smiles": "CN(C)c1ccc(/C=N/c2ncc3[nH+]c[nH]c3n2)cc1", "pKa": 3.82}
{"smiles": "Cc1ccc(N(CC2CO2)CC2CO2)cc1", "note": "(configuration not stated)", "pKa": -0.48}
{"smiles": "COc1ccc(C(N)=O)cc1", "pKa": -1.6}
{"smiles": "Cc1cc(-c2ccccc2)nn(C)/c1=N/CCN1CCOCC1", "pKa": 10.4}
{"smiles": "CSCc1cccc(CSC)n1", "pKa": 4.19}
{"smiles": "Cn1c(=O)n(C)c2c(N)cccc21", "pKa": 3.06}
{"smiles": "CNc1ccccc1C", "pKa": 4.59}
